“Also recorded” adds a separate entry of the source.
Assays:
RVFV MP12-GFP [1] = experiment: microbe, parasite or virus in culture; type: cell-based, Rift Valley fever virus; conditions: for inhibition at 10 µM: Rift Valley fever virus, Hepatocyte, read-out: inhibition of RVFV MP12-GFP infection
[2] = test system: Wnt3A-induced β-catenin luc reporter expression; type: cell-based, human
[3] = test system: RVFV MP12-induced β-catenin transcriptional activity; type: cell-based, human
RVFV MP12-GFP [4] = type: cell-based, Rift Valley fever virus
VacV = type: cell-based, Vaccinia virus
VSV [5] = type: cell-based, Vesicular Stomatitis virus
RVFV MP12 = type: cell-based, Rift Valley fever virus
wild-type RVFV = type: cell-based, Rift Valley fever virus
CEV = type: cell-based, California encephalitis virus
LCV = type: cell-based, La Crosse virus
[6] = test system: cellular models of cancer survival; conditions: preclinical studies; cited from earlier work
RVFV MP12-GFP [7] = type: cell-based, Rift Valley fever virus; remark: listed apart in the source
VSV [8] = type: cell-based, Vesicular Stomatitis virus; remark: listed apart in the source
[9] = test system: wild-type RVFV strain ZH-501; type: cell-based, Rift Valley fever virus

## O=C(Nc1cccc2cccnc12)c1ccc(N2C(=O)[C@@H]3[C@H](C2=O)[C@@H]2C=C[C@H]3C2)cc1 [Endo-IWR-1, 4-[(3aR,4S,7R,7aS)-1,3-dioxo-1,3,3a,4,7,7a-hexahydro-2H-4,7-methanoisoindol-2-yl]-N-(quinolin-8-yl)benzamide]
RVFV MP12-GFP [1]
  inhibition at 10 µM: > 50%
[2]
  Wnt3A-induced β-catenin luc reporter activity: inhibited
[3]
  RVFV MP12-induced β-catenin reporter activity: inhibited
RVFV MP12-GFP [4]
  RVFV MP12-GFP infection, inhibitor 1 hour prior to and during initial infection, removed after 3 hours (pre-treat): little to no effect
  RVFV MP12-GFP infection, inhibitor added 1 hpi (post-treat): significantly inhibit

## CN(C)c1ccc(/C=C/c2c(F)cccc2F)cc1 [Wnt XII, (E)-4-(2,6-difluorostyryl)-N,N-dimethylaniline]
RVFV MP12-GFP [1]
  infection of RVFV MP12-GFP (relative percent infection): reduced
VacV
  infection of VacV (relative percent infection): did not diminish
VSV [5]
  infection of VSV (relative percent infection): did not diminish
[2]
  Wnt3A-induced β-catenin luc reporter activity: inhibited
[3]
  RVFV MP12-induced β-catenin reporter activity: inhibited
RVFV MP12-GFP [4]
  RVFV MP12-GFP infection, inhibitor 1 hour prior to and during initial infection, removed after 3 hours (pre-treat): little to no effect
  RVFV MP12-GFP infection, inhibitor added 1 hpi (post-treat): significantly inhibit

## O=C1Nc2ccccc2C12OCC1(CO2)COC2(OC1)C(=O)Nc1ccccc12 (stereo not drawn) [JW67, trispiro[3H-indole-3,2′-[1,3]dioxane-5′,5″-[1,3]dioxane-2″,3′″-[3H]indole]-2,2′″(1H,1′″H)-dione]
RVFV MP12-GFP [1]
  inhibition at 10 µM: > 50%
VacV
  infection of VacV (relative percent infection): none of the inhibitors that stabilized the DC affected
VSV [5]
  infection of VSV (relative percent infection): none of the inhibitors that stabilized the DC affected
RVFV MP12
  RVFV MP12 viral titers by plaque assay: significant decrease
wild-type RVFV
  wild-type RVFV viral titers by plaque assay: significant decrease; also recorded: significantly reduced
CEV
  CEV infection / viral titers by plaque assay: significantly reduced
LCV
  LCV infection / viral titers by plaque assay: significantly reduced
[2]
  Wnt3A-induced β-catenin luc reporter activity: inhibited
[3]
  RVFV MP12-induced β-catenin reporter activity: inhibited
RVFV MP12-GFP [4]
  RVFV MP12-GFP infection, inhibitor 1 hour prior to and during initial infection, removed after 3 hours (pre-treat): little to no effect
  RVFV MP12-GFP infection, inhibitor added 1 hpi (post-treat): significantly inhibit

## Cc1cc(/C=C2\SC(=O)N(c3ccccc3)C2=O)c(C)n1-c1cccnc1 [iCRT-14, (5Z)-5-[(2,5-dimethyl-1-pyridin-3-ylpyrrol-3-yl)methylidene]-3-phenyl-1,3-thiazolidine-2,4-dione]
RVFV MP12-GFP [1]
  infection of RVFV MP12-GFP (relative percent infection): reduced
VacV
  infection of VacV (relative percent infection): did not diminish
VSV [5]
  infection of VSV (relative percent infection): did not diminish
RVFV MP12
  RVFV MP12 viral titers by plaque assay: significant decrease
wild-type RVFV
  wild-type RVFV viral titers by plaque assay: significant decrease
[2]
  Wnt3A-induced β-catenin luc reporter activity: inhibited
[3]
  RVFV MP12-induced β-catenin reporter activity: inhibited
RVFV MP12-GFP [4]
  RVFV MP12-GFP infection, inhibitor 1 hour prior to and during initial infection, removed after 3 hours (pre-treat): little to no effect
  RVFV MP12-GFP infection, inhibitor added 1 hpi (post-treat): significantly inhibit

## WIF-1
RVFV MP12-GFP [1]
  infection of RVFV MP12-GFP (relative percent infection): unable to reduce infection
VacV
  infection of VacV (relative percent infection): unable to reduce infection
VSV [5]
  infection of VSV (relative percent infection): unable to reduce infection
[2]
  Wnt3A-induced β-catenin luc reporter activity: dose-dependent reduction
[3]
  RVFV MP12-induced β-catenin reporter activity: no effect
RVFV MP12-GFP [4]
  RVFV MP12-GFP infection, inhibitor 1 hour prior to and during initial infection, removed after 3 hours (pre-treat): no effect
  RVFV MP12-GFP infection, inhibitor added 1 hpi (post-treat): no effect

## O=c1nc(-c2ccc(C(F)(F)F)cc2)[nH]c2c1CSCC2 [XAV939, 2-[4-(trifluoromethyl)phenyl]-1,5,7,8-tetrahydrothiopyrano[4,3-d]pyrimidin-4-one]
[6]
  efficacy in cellular models of cancer survival: demonstrated efficacy

## COc1ccc(C2(CNC(=O)c3ccc(NC(=O)c4ccco4)cc3)CCOCC2)cc1 [JW55, N-[4-[[4-(4-methoxyphenyl)oxan-4-yl]methylcarbamoyl]phenyl]furan-2-carboxamide]
[6]
  efficacy in cellular models of cancer survival: demonstrated efficacy

## Cc1cc([N+](=O)[O-])ccc1NS(=O)(=O)c1cc(Cl)ccc1Cl [FH535, 2,5-dichloro-N-(2-methyl-4-nitrophenyl)benzenesulfonamide]
RVFV MP12-GFP [1]
  infection of RVFV MP12-GFP (relative percent infection): reduced
VacV
  infection of VacV (relative percent infection): did not diminish
VSV [5]
  infection of VSV (relative percent infection): did not diminish
[2]
  Wnt3A-induced β-catenin luc reporter activity: inhibited
[3]
  RVFV MP12-induced β-catenin reporter activity: inhibited
RVFV MP12-GFP [4]
  RVFV MP12-GFP infection, inhibitor 1 hour prior to and during initial infection, removed after 3 hours (pre-treat): little to no effect
  RVFV MP12-GFP infection, inhibitor added 1 hpi (post-treat): significantly inhibit

## CO/C1=C\C(C)=C\[C@@H](C)[C@@H](O)[C@@H](C)C/C(C)=C/C=C/[C@H](OC)[C@@H]([C@@H](C)[C@@H](O)[C@H](C)[C@@]2(O)C[C@@H](O)[C@H](C)[C@@H](C(C)C)O2)OC1=O [BAF]
[3]
  RVFV MP12-induced β-catenin reporter activity: blocked

B1: Wnt3A (protein, UniProt P56704 19-352, looked up)
Protein Wnt-3a: SYPIWWSLAVGPQYSSLGSQPILCASIPGLVPKQLRFCRNYVEIMPSVAEGIKIGIQECQHQFRGRRWNCTTVHDSLAIFGPVLDKATRESAFVHAIASAGVAFAVTRSCAEGTAAICGCSSRHQGSPGKGWKWGGCSEDIEFGGMVSREFADARENRPDARSAMNRHNNEAGRQAIASHMHLKCKCHGLSGSCEVKTCWWSQPDFRAIGDFLKDKYDSASEMVVEKHRESRGWVETLRPRYTYFKVPTERDLVYYEASPNFCEPNPETGSFGTRDRTCNVSSHGIDGCDLLCCGRGHNARAERRREKCRCVFHWCCYVSCQECTRVYDVHTCK
RVFV MP12-GFP [7]
  RVFV MP12-GFP viral infection after Wnt3A pre-treatment: significantly enhanced
  increase in RVFV MP12-GFP infection: greater than 4.5 fold
VSV [8]
  VSV infection after Wnt3A pre-treatment: remained unchanged
[9]
  wild-type RVFV infection (number of plaques): enhanced

B2: DKK-1 (protein, UniProt O94907 32-266, looked up)
Dickkopf-related protein 1: TLNSVLNSNAIKNLPPPLGGAAGHPGSAVSAAPGILYPGGNKYQTIDNYQPYPCAEDEECGTDEYCASPTRGGDAGVQICLACRKRRKRCMRHAMCCPGNYCKNGICVSSDQNHFRGEIEETITESFGNDHSTLDGYSRRTTLSSKMYHTKGQEGSVCLRSSDCASGLCCARHFWSKICKPVLKEGQVCTKHRRKGSHGLEIFQRCYCGEGLSCRIQKDHHQASNSSRLHTCQRH
RVFV MP12-GFP [1]
  infection of RVFV MP12-GFP (relative percent infection): unable to reduce infection
VacV
  infection of VacV (relative percent infection): unable to reduce infection
VSV [5]
  infection of VSV (relative percent infection): unable to reduce infection
[2]
  Wnt3A-induced β-catenin luc reporter activity: dose-dependent reduction
[3]
  RVFV MP12-induced β-catenin reporter activity: no effect
RVFV MP12-GFP [4]
  RVFV MP12-GFP infection, inhibitor 1 hour prior to and during initial infection, removed after 3 hours (pre-treat): no effect
  RVFV MP12-GFP infection, inhibitor added 1 hpi (post-treat): no effect
